The target in data set [1] is T1, C-X-C chemokine receptor type 2 (Homo sapiens, UniProt P25025). Also: in other assays of this panel Not Active means under 50% inhibition at 10 µM.
T1 sequence (P25025 whole entry): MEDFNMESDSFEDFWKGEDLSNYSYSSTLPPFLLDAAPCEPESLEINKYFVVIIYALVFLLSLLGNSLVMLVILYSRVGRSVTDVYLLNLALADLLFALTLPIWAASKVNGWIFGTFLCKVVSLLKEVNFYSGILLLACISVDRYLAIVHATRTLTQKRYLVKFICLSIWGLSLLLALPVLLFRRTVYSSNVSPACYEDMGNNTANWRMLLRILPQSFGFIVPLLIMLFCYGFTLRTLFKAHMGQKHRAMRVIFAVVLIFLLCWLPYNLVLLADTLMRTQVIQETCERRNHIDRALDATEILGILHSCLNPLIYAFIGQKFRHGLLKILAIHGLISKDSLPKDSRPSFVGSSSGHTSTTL
The format is cell membranes, CHO-K1, Membrane. The settings on record: cho-k1.

Data set [2] concerns the target 5-hydroxytryptamine receptor 2B (Homo sapiens, UniProt P41595). The data set is classed as cell membranes, CHO-K1, Membrane. Also: in other assays of this panel Not Active means under 50% inhibition at 10 µM.
Data set [3] in a line: DRUGMATRIX: Platelet-Derived Growth Factor (PDGF) radioligand binding (ligand: [125I] PDGF). The data set is classed as cell-based. The settings on record: nih3t3; Not Active = under 50% inhibition at 10 µM.
In the next data set the target is Cytochrome P450 2C9 (Homo sapiens, UniProt P11712). The settings on record: bti-tn-5b1-4. Also: in other assays of this panel Not Active means under 50% inhibition at 10 µM.
Sequence of Cytochrome P450 2C9 (P11712 whole entry): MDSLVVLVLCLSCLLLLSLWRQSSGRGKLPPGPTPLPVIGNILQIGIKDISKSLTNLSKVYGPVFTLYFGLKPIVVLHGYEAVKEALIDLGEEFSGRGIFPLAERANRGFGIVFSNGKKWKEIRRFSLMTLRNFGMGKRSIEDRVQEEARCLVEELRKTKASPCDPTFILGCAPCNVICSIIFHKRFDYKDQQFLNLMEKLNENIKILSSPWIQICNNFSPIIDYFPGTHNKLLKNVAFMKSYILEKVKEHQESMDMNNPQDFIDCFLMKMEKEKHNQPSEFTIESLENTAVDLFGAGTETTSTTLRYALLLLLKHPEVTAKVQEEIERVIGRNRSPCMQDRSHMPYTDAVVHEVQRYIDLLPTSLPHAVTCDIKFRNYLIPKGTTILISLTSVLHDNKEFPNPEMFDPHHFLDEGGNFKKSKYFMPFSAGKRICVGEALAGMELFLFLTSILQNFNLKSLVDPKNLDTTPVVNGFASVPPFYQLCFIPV
The target in the next data set is T2, B2 bradykinin receptor (Homo sapiens, UniProt P30411). Also: in other assays of this panel Not Active means under 50% inhibition at 10 µM.
T2 sequence (P30411 whole entry): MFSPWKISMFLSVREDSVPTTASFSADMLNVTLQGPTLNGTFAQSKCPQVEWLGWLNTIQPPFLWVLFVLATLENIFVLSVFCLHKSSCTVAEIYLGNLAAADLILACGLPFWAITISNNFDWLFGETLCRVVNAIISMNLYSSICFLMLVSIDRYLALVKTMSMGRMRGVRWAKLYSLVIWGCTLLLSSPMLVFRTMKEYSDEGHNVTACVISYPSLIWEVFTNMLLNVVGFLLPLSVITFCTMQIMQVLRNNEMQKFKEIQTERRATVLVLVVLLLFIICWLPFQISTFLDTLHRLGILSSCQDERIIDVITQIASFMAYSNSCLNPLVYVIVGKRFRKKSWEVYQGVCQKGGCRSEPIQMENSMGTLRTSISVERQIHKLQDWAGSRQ
The format is cell membranes, Membrane. The settings on record: chem-1.

Another data set has as its target Cytochrome P450 2E1 (Homo sapiens, UniProt P05181). The settings on record: bti-tn-5b1-4. Also: in other assays of this panel Not Active means under 50% inhibition at 10 µM.
The target in the next data set is T3, Cytochrome P450 2A6 (Homo sapiens, UniProt P11509). Also: in other assays of this panel Not Active means under 50% inhibition at 10 µM.
T3 sequence (P11509 whole entry): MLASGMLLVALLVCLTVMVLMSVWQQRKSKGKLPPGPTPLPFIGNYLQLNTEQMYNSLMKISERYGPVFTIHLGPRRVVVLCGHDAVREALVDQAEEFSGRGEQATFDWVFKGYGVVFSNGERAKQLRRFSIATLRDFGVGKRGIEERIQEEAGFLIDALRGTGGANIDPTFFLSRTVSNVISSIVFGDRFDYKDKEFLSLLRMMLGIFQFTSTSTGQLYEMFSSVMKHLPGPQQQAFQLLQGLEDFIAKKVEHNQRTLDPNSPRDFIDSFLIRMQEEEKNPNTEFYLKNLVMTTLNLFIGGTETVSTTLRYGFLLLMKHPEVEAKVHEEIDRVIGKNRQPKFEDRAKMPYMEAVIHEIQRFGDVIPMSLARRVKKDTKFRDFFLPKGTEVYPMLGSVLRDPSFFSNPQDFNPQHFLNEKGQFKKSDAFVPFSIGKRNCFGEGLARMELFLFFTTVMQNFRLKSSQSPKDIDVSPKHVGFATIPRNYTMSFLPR
The settings on record: bti-tn-5b1-4.

Data set [4] in a line: DRUGMATRIX: Phorbol Ester radioligand binding (ligand: [3H] PDBu). The data set is classed as cell membranes, Mus musculus, ICR, Brain, Membrane. The settings on record: Not Active = under 50% inhibition at 10 µM.

Structures are written as SMILES.

In general, IC50 refers to the concentration at which inhibition is half-maximal. In general, Ki refers to the dissociation constant of the complex between target and ligand, obtained from inhibition or displacement.

Sequence of 5-hydroxytryptamine receptor 2B (P41595 whole entry): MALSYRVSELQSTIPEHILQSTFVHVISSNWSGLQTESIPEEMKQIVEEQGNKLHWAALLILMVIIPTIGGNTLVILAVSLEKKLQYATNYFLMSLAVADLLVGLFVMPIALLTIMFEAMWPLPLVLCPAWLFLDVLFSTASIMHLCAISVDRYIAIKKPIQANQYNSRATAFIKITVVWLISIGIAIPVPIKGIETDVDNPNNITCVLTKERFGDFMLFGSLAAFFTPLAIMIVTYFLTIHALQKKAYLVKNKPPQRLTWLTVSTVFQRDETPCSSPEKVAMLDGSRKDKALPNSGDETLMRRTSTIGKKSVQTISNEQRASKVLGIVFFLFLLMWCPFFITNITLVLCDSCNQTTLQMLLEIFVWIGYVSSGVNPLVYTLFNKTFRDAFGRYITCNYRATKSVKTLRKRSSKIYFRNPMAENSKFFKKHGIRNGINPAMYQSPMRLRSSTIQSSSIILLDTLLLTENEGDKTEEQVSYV
Sequence of Cytochrome P450 2E1 (P05181 whole entry): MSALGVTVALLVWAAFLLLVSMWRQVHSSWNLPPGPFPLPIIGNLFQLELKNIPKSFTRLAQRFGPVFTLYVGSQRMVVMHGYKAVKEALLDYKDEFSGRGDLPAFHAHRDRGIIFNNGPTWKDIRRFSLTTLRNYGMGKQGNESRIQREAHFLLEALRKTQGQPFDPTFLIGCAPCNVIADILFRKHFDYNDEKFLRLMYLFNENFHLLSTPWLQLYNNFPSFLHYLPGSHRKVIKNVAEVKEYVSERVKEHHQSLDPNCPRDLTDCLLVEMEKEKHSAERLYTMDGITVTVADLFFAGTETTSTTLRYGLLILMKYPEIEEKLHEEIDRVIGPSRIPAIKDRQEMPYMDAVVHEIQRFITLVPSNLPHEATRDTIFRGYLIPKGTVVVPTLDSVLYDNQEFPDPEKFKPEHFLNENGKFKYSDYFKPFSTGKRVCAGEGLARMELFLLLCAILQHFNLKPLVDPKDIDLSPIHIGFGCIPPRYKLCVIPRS

Consider `Cc1c(N)nc([C@H](CC(N)=O)NC[C@H](N)C(N)=O)nc1C(=O)N[C@H](C(=O)N[C@H](C)[C@@H](O)[C@H](C)C(=O)N[C@H](C(=O)NCCc1nc(-c2nc(C(=O)NCCC[S+](C)C)cs2)cs1)[C@@H](C)O)[C@@H](O[C@@H]1O[C@@H](CO)[C@@H](O)[C@H](O)[C@@H]1O[C@H]1O[C@H](CO)[C@@H](O)[C@H](OC(N)=O)[C@@H]1O)c1c[nH]cn1.[Br-]` [BLEOMYCIN A2], for which the IC50 result (in data set [1]; in data set [2] (cho-k1); in data set [3]; against Cytochrome P450 2C9; on B2 bradykinin receptor; at Cytochrome P450 2E1) was “Not Active” each time. Also, the IC50 entry (at Cytochrome P450 2A6; in data set [4]) was “Not Active” each time. In addition, the inhibition constant Ki entry (in data set [3]; at Cytochrome P450 2C9; on Cytochrome P450 2E1; at Cytochrome P450 2A6; in data set [4]) was “Not Active” each time.
Consider `CN(Cc1cc(Br)cc(Br)c1N)C1CCCCC1` [BROMHEXINE], for which the 50% inhibitory concentration (IC50) entry (in data set [1]; in data set [2] (cho-k1); in data set [3]; against Cytochrome P450 2C9; on B2 bradykinin receptor; on Cytochrome P450 2E1) was “Not Active” each time. Further, the IC50 result (on Cytochrome P450 2A6; in data set [4]) was “Not Active” in each case. For the same compound, the Ki result (in data set [3]; on Cytochrome P450 2C9; at Cytochrome P450 2E1; at Cytochrome P450 2A6; in data set [4]) was “Not Active” throughout.
With `CC12CCC(CC1=O)C2(C)C` (configuration not stated) [CAMPHOR], the IC50 entry (in data set [1]; in data set [2] (cho-k1); in data set [3]; at Cytochrome P450 2C9; against B2 bradykinin receptor; at Cytochrome P450 2E1) was “Not Active” each time. Further, the IC50 result (against Cytochrome P450 2A6; in data set [4]) was “Not Active” in each case. Besides, the Ki entry (in data set [3]; at Cytochrome P450 2C9; on Cytochrome P450 2E1; at Cytochrome P450 2A6; in data set [4]) was “Not Active” each time.
For the compound `C[N+](C)(C)CCOC(N)=O.[Cl-]` [CARBACHOL], the half-inhibitory concentration (IC50) entry (in data set [1]; in data set [2] (cho-k1); in data set [3]; against Cytochrome P450 2C9; at B2 bradykinin receptor; against Cytochrome P450 2E1) was “Not Active” in each case. The half-maximal inhibitory concentration (IC50) result (at Cytochrome P450 2A6; in data set [4]) was “Not Active” each time. Besides, the inhibition constant (Ki) result (in data set [3]; on Cytochrome P450 2C9; at Cytochrome P450 2E1; at Cytochrome P450 2A6; in data set [4]) was “Not Active” each time.
In the case of `CCCCCCNC(=O)n1cc(F)c(=O)[nH]c1=O` [CARMOFUR], the 50% inhibitory concentration (IC50) entry (in data set [1]; in data set [2] (cho-k1); in data set [3]; on Cytochrome P450 2C9; on B2 bradykinin receptor; against Cytochrome P450 2E1) was “Not Active” each time. Moreover, the IC50 entry (on Cytochrome P450 2A6; in data set [4]) was “Not Active” throughout. The Ki entry (in data set [3]; at Cytochrome P450 2C9; on Cytochrome P450 2E1; on Cytochrome P450 2A6; in data set [4]) was “Not Active” each time.
Take `COc1ccccc1OCCNCC(O)COc1cccc2[nH]c3ccccc3c12` (configuration not stated) [CARVEDILOL]: the IC50 entry was “Not Active” in data set [1]; 0.023 µM in data set [2] (read-out: IC50); “Not Active” in data set [3]; “Not Active” against Cytochrome P450 2C9; “Not Active” against B2 bradykinin receptor; “Not Active” on Cytochrome P450 2E1. Moreover, the IC50 result (against Cytochrome P450 2A6; in data set [4]) was “Not Active” in each case. Besides, the Ki is 0.015 µM in data set [2] (read-out: Ki); “Not Active” in data set [3]; “Not Active” at Cytochrome P450 2C9; “Not Active” on Cytochrome P450 2E1; “Not Active” at Cytochrome P450 2A6; “Not Active” in data set [4].
On to `Cl.NC[C@H]1CC[C@H](C(=O)Oc2ccc(CCC(=O)O)cc2)CC1` [CETRAXATE HYDROCHLORIDE], for which the IC50 entry (in data set [1]; in data set [2] (cho-k1); in data set [3]; on Cytochrome P450 2C9; against B2 bradykinin receptor; against Cytochrome P450 2E1) was “Not Active” in each case. Moreover, the IC50 entry (on Cytochrome P450 2A6; in data set [4]) was “Not Active” throughout. For the same compound, the Ki entry (in data set [3]; on Cytochrome P450 2C9; on Cytochrome P450 2E1; at Cytochrome P450 2A6; in data set [4]) was “Not Active” in each case.
Turning to `CC1(COc2ccc(CC3SC(=O)NC3=O)cc2)CCCCC1` (configuration not stated) [CIGLITAZONE], the IC50 result (in data set [1]; in data set [2] (cho-k1); in data set [3]; on Cytochrome P450 2C9; at B2 bradykinin receptor; at Cytochrome P450 2E1) was “Not Active” throughout. Further, the IC50 entry (against Cytochrome P450 2A6; in data set [4]) was “Not Active” in each case. The Ki entry (in data set [3]; at Cytochrome P450 2C9; at Cytochrome P450 2E1; at Cytochrome P450 2A6; in data set [4]) was “Not Active” throughout.
Regarding `CC(C)Cc1ccc([C@H](C)C(=O)O)cc1` [DEXIBUPROFEN], the IC50 entry (in data set [1]; in data set [2] (cho-k1); in data set [3]; on Cytochrome P450 2C9; against B2 bradykinin receptor; against Cytochrome P450 2E1) was “Not Active” each time. The half-maximal inhibitory concentration (IC50) result (at Cytochrome P450 2A6; in data set [4]) was “Not Active” throughout. Further, the Ki result (in data set [3]; on Cytochrome P450 2C9; on Cytochrome P450 2E1; on Cytochrome P450 2A6; in data set [4]) was “Not Active” throughout.
For the compound `O=c1[nH]cnc2c1ncn2[C@H]1CC[C@@H](CO)O1` [DIDANOSINE], the IC50 entry (in data set [1]; in data set [2] (cho-k1); in data set [3]; at Cytochrome P450 2C9; on B2 bradykinin receptor; on Cytochrome P450 2E1) was “Not Active” in each case. Further, the IC50 result (at Cytochrome P450 2A6; in data set [4]) was “Not Active” each time. In addition, the Ki result (in data set [3]; at Cytochrome P450 2C9; on Cytochrome P450 2E1; on Cytochrome P450 2A6; in data set [4]) was “Not Active” in each case.
Take `ClC1=C(Cl)[C@]2(Cl)[C@@H]3[C@@H]4C[C@@H]([C@H]5O[C@@H]45)[C@@H]3[C@@]1(Cl)C2(Cl)Cl` [DIELDRIN]: the IC50 result (in data set [1]; in data set [2] (cho-k1); in data set [3]; against Cytochrome P450 2C9; on B2 bradykinin receptor; against Cytochrome P450 2E1) was “Not Active” throughout. The IC50 result (on Cytochrome P450 2A6; in data set [4]) was “Not Active” throughout. Besides, the Ki result (in data set [3]; on Cytochrome P450 2C9; at Cytochrome P450 2E1; on Cytochrome P450 2A6; in data set [4]) was “Not Active” throughout.
Take `CCN1CCN(c2cc3c(cc2F)c(=O)c(C(=O)O)cn3C2CC2)CC1` [ENROFLOXACIN]: the IC50 entry (in data set [1]; in data set [2] (cho-k1); in data set [3]; on Cytochrome P450 2C9; against B2 bradykinin receptor; against Cytochrome P450 2E1) was “Not Active” each time. The IC50 entry (on Cytochrome P450 2A6; in data set [4]) was “Not Active” throughout. Also, the Ki entry (in data set [3]; on Cytochrome P450 2C9; at Cytochrome P450 2E1; at Cytochrome P450 2A6; in data set [4]) was “Not Active” in each case.

The values are drawn from ChEMBL document CHEMBL1909046, “DrugMatrix in vitro pharmacology data”.
